From patent publication EP2229935A1, “Peptide derivatives or pharmaceutically acceptable salts thereof, method for producing the same, use of said derivatives and pharmaceutical composition” (Nebolsin, Vladimir Evgenievich, priority 1997, dated 1999)
Marks after values point to notes of the source that are not given here.

What was measured:
mongrel male mice = test: Passive cutaneous anaphylaxis reaction; type: in vivo; conditions: PCA, oral 3 days
Protocol: Experiments were carried out on mongrel male mice with initial body mass 22-24 g. Each group included 10 animals. Sensibilization of animals was accomplished by intradermal injection of 20-30 µl of the serum of mice obtained from preliminaryly immunized animals comprising reagent antibodies against chicken ovalbumin (OVA). […] In 48 hours after sensibilzation an anaphylaxis-provoking OVA dose (1 mg and 0,2 ml Evans blue in 0.2 ml normal saline) were intravenously injected to mice. Passive cutaneous anaphylaxis reaction intensity (PCA) was determined in 30 minutes by the size (area) of a blue spot on the internal skin surface in the site of reagent anibodies' administration. Spot size was measured in two mutually perpendicular directions and the result was expressed in mm^2.

Wistar male rats = test: Blood glucose level in intact rats; type: in vivo; conditions: for Blood glucose level (mg/dl) 2 hours after / Blood glucose level (mg/dl) 5 hours after: deprived of food; for Blood glucose level (mg/dl) 2 hours before: intragastral four days
Protocol: Experiments were carried out on Wistar male rats weighing 250-300 g. Experimental diabetes was induced with single intravenous injection of streptozotocine (the Synthez cooperative enterprise at the IMBG of the Academy of Sciences of Ukraine) at a dose 42 mg/kg to rats which were preliminarily fasting for 24 hours with access to food immediately following injection. Rats were selected for experiment 2 weeks after diabetes induction with glycemia 120-180 mg/dl. Each group included 12 animals.
The compounds were intragastrally administered to intact animals and to rats with streptozotocine diabetes for four days at daily doses 50 µg/kg and 500 µg/kg in water solution at a rate of 1 ml per 200 g of body mass. Intact animals were given the compounds III and XLIV, and rats with induced diabetes were given the compound XLIV. Check blood glucose level determination was done at the day of experiment, then animals were administered the test compounds and were deprived of food. The control animals received a respective water volume. Effect was estimated by change in blood glucose level in 2 and 5 hours. Then animals received forage and 24 hours after the last drug administration blood was again sampled for examination. 0.1 ml of blood were collected from the tail vein. Glucose level was determined using the o-toluidine method.
Glucose level was calculated in mg/dl using standard glucose solutions. Then the degree of change in glucose level in relation to the initial level was determined for each animal with its expression in percent from the initial level. Final calculation was performed for each group of animals. Each group included 10 animals.

NK-cells = test: Activity of NK-cells after swimming stress (H^3-uridine release from YAC-1); type: in vivo, Balb male mice; conditions: 50 µg/kg orally four times
Protocol: Experiments were carried out on inbred Balb male mice with initial body mass 16-18 g. Each group included 12 animals. The model of swimming in warm water for 20 minutes was used to develop emotional-locomotory stress in animals. Stress development was estimated by the activity of natural killer lymphocytes (NK cells) and by functioning of the interferon system [Sukhikh T.G., Nossik N.N., Parshina O.V., Van'ko L.V., Meerson F.Z., Yershov F.I. Relationship between the natural cellular cytotoxicity system and the interferon system in immobilization stress. Bulletin of Experimental Biology (1984), ? , pp.593-595].
Activity of NK-cells was determined in the test of H^3-uridine release from the labelled target cells YAC-1 (mouse cellular lymphoma maintained by passages in vitro in suspension in the RPMI-1640 medium with 10% fetal serum). H^3-uridine (3-5 µC/cells/ml) was introduced into cellular suspension at concentration 1 miilion cells/ml on the 60th minute while shaking with 15 minute inerval and subsequent washing with the medium.
Splenocytes of mice which were obtained using the published method [Nossik N.N., Bopegamage S.A., Yershov F.I. Properties of interferons produced by different cell populations. Acta microbiologica Hungarica (1988), Vol. 35, Iss. 4, pp. 397-403] served as the source of NK-cells.
Animals were divided into four groups, each including 36 mice. • Group 1 - intact animals not subjected to stress and given normal saline (NS). • Group 2 - animals which ere subjected to stress effect and given NS. • Group 3 - animals which were subjected to stress effect and administered compound III. • Group 4 - animals which were subjected to stress effect and administered compound XLIV.
Activity of NK-cells and interferon state were dynamically determined in 4 hours following stress, in 24 hours and then by days 5, 7 and 10.

Human lymphocytes = test: Concanavalin A-induced blasttransformation of lymphocytes; type: cell-based
Protocol: Human lymphocytes were used for blasttransformation reaction [Kiseleva E.P., Tsveibakh A.S., Goldman E.I., Pigareva N.V. Application of a micromethod to study blasttransformation of lymphocytes in humans and animals. Immunology (1985), No 1, pp. 76-78]. 10 ml blood were collected into a sterile syringe containing heparine (to final concentration 25 U/ml) and incubated to sediment red blood cells (60-90 minutes at 37°C). Leukocytic suspension layer was selected and the number of nucleated cells was calculated. The cells obtained in such a way were incubated for 72 hours in a humid atmosphere with 5% CO2 at 37°C in the cells of plates for immune reactions in RPMI-1640 medium comprising 15% fetal calf serum, […] Neomycine (incubation mixture volume 0.15 ml). 5 x 10^5 cells were introduced into each plate cell. Incubation was carried out in the presence or absence of mitogen phytohemagglutinin (PHA) (Sigma) […] or concanavalin A (ConA) (Sigma) […] with or without addition of the test compounds at different concentrations. […] H^3 -thymidine in RPMI-1640 medium were introduced into each cell 16 hours before incubation termination. Following culturing period termination, 0.15 ml cellular suspension from each plate cell were transferred on the FN-8 paper filters. Filters were dried, washed two times with normal saline for 5 minutes then twice with TCA for 60 minutes. After drying, radioactivity of samples was calculated on a counter in the ZhS-8 scintillator. Stimulation index was calculated as ratio of sample radioactivity with mitogen to sample radioactivity without mitogen.

Compound | Percent of the reaction inhibition (mongrel male mice; 50 µg/kg) [%] | Reaction intensity, mm^2 (mongrel male mice; 50 µg/kg) | Blood glucose level (mg/dl) 24 hours after (Wistar male rats; 50 µg/kg) [mg/dL] | Blood glucose level (mg/dl) 24 hours after (Wistar male rats; 500 µg/kg) [mg/dL] | Blood glucose level (mg/dl) 2 hours after (Wistar male rats; 50 µg/kg) [mg/dL] | Blood glucose level (mg/dl) 5 hours after (Wistar male rats; 50 µg/kg) [mg/dL] | Blood glucose level (mg/dl) 2 hours after (Wistar male rats; 500 µg/kg) | Blood glucose level (mg/dl) 5 hours after (Wistar male rats; 500 µg/kg) | Blood glucose level (mg/dl) 2 hours before (Wistar male rats; 50 µg/kg) [mg/dL] | Blood glucose level (mg/dl) 2 hours before (Wistar male rats; 500 µg/kg) [mg/dL] | activity of NK-cells (NK-cells; 0.16 days after stress) | activity of NK-cells (NK-cells; 1 day after stress) | activity of NK-cells (NK-cells; 5 days after stress) | activity of NK-cells (NK-cells; 7 days after stress) | activity of NK-cells (NK-cells; 10 days after stress) | blasttranformation reaction of human lymphocytes induced by ConA (Human lymphocytes) | Radioactivity, number of pulses for 20 seconds (Human lymphocytes; 10^-3 M/l, +ConA) | Stimulation index (Human lymphocytes; 10^-3 M/l, +ConA) | Radioactivity, number of pulses for 20 seconds (Human lymphocytes; 10^-3 M/l, no mitogen) | Radioactivity, number of pulses for 20 seconds (Human lymphocytes; 10^-4 M/l, +ConA) | other results
O=C(O)CCCC(=O)NCCc1c[nH]cn1 [compound III, N-GLUTARYLHISTAMINE] | 42 | 51.6 ± 17.1*^2 mm^2 | 66.5 ± 3.3 | 73.1 ± 3.4 | 58.5 ± 5.9 | 70.8 ± 5.5 | 69.9 ± 2.8*^2 mg/dl | 72.6 ± 1.5*^2 mg/dl | 84.2 ± 6.1 | 71.3 ± 4.0 | 68.5 ± 0.99*^1,2 | 69.3 ± 1.81***^2 | 79 ± 1.46 | 69.3 ± 4.85 | 77 ± 1.98 | stimulating effect | 680 ± 82 number of pulses for 20 seconds | 2.06 | 330 ± 105 number of pulses for 20 seconds | 1197±97 number of pulses for 20 seconds | Percent of the reaction inhibition (mongrel male mice; 150 µg/kg): 34.3%; Reaction intensity, mm^2 (mongrel male mice; 150 µg/kg): 53.7 ± 10.1*^1 mm^2; Percent of the reaction inhibition (mongrel male mice; 500 µg/kg): 30.0%; Reaction intensity, mm^2 (mongrel male mice; 500 µg/kg): 57.2 ± 12.6*^1 mm^2; Stimulation index (Human lymphocytes; 10^-4 M/l, +ConA): 4.37; Radioactivity, number of pulses for 20 seconds (Human lymphocytes; 10^-4 M/l, no mitogen): 274 ± 28 number of pulses for 20 seconds; Radioactivity, number of pulses for 20 seconds (Human lymphocytes; 10^-5 M/l, +ConA): 1562 ± 134 number of pulses for 20 seconds; Stimulation index (Human lymphocytes; 10^-5 M/l, +ConA): 3.34; Radioactivity, number of pulses for 20 seconds (Human lymphocytes; 10^-5 M/l, no mitogen): 467 ± 109 number of pulses for 20 seconds; Radioactivity, number of pulses for 20 seconds (Human lymphocytes; 10^-6 M/l, +ConA): 1922 ± 248 number of pulses for 20 seconds; Stimulation index (Human lymphocytes; 10^-6 M/l, +ConA): 4.71; Radioactivity, number of pulses for 20 seconds (Human lymphocytes; 10^-6 M/l, no mitogen): 408 ± 75 number of pulses for 20 seconds; Radioactivity, number of pulses for 20 seconds (Human lymphocytes; 10^-7 M/l, +ConA): 1483 ± 67 number of pulses for 20 seconds; Stimulation index (Human lymphocytes; 10^-7 M/l, +ConA): 3.10; Radioactivity, number of pulses for 20 seconds (Human lymphocytes; 10^-7 M/l, no mitogen): 478 ± 35 number of pulses for 20 seconds; Radioactivity, number of pulses for 20 seconds (Human lymphocytes; 10^-8 M/l, +ConA): 849 ± 133 number of pulses for 20 seconds; Stimulation index (Human lymphocytes; 10^-8 M/l, +ConA): 3.63; Radioactivity, number of pulses for 20 seconds (Human lymphocytes; 10^-8 M/l, no mitogen): 234 ± 36 number of pulses for 20 seconds
γ-L-glutamylhistamine [compound XLIV] | 50 | 44.6 ± 11.6 mm^2 | 79.9 ± 5.2 | 83.7 ± 4.0 | 60.8 ± 4.0 | 64.0 ± 3.1 | 64.8 ± 4.2 mg/dL | 65.9 ± 3.9 mg/dL | 81.2 ± 3.8 | 80.8 ± 2.7 | 69.5 ± 1.32**^2 | 61.5 ± 2.64*^1,2 | 71 ± 0.82 | 67.7 ± 3.95 | 77.5 ± 1.65 | stimulating effect | 1072 ± 135 number of pulses for 20 seconds | 3.01 | 356±51 number of pulses for 20 seconds | 1259 ± 90 number of pulses for 20 seconds | Stimulation index (Human lymphocytes; 10^-4 M/l, +ConA): 3.91; Radioactivity, number of pulses for 20 seconds (Human lymphocytes; 10^-4 M/l, no mitogen): 322 ± 38 number of pulses for 20 seconds; Radioactivity, number of pulses for 20 seconds (Human lymphocytes; 10^-5 M/l, +ConA): 1695 ± 139 number of pulses for 20 seconds; Stimulation index (Human lymphocytes; 10^-5 M/l, +ConA): 5.00; Radioactivity, number of pulses for 20 seconds (Human lymphocytes; 10^-5 M/l, no mitogen): 339 ± 32 number of pulses for 20 seconds; Radioactivity, number of pulses for 20 seconds (Human lymphocytes; 10^-6 M/l, +ConA): 1963 ± 205 number of pulses for 20 seconds; Stimulation index (Human lymphocytes; 10^-6 M/l, +ConA): 6.96; Radioactivity, number of pulses for 20 seconds (Human lymphocytes; 10^-6 M/l, no mitogen): 289 ± 52 number of pulses for 20 seconds; Radioactivity, number of pulses for 20 seconds (Human lymphocytes; 10^-7 M/l, +ConA): 1786 ± 241 number of pulses for 20 seconds; Stimulation index (Human lymphocytes; 10^-7 M/l, +ConA): 7.38; Radioactivity, number of pulses for 20 seconds (Human lymphocytes; 10^-7 M/l, no mitogen): 242 ± 19 number of pulses for 20 seconds; Radioactivity, number of pulses for 20 seconds (Human lymphocytes; 10^-8 M/l, +ConA): 971 ± 44 number of pulses for 20 seconds; Stimulation index (Human lymphocytes; 10^-8 M/l, +ConA): 4.17; Radioactivity, number of pulses for 20 seconds (Human lymphocytes; 10^-8 M/l, no mitogen): 233 ± 54 number of pulses for 20 seconds
